This note sets out measurements from US20250019379A1, “NEW CRYSTAL FORM OF COMPOUND, AND PREPARATION METHOD THEREFOR AND USE THEREOF” (E-nitiate Biopharmaceuticals (Hangzhou) Co., Ltd, priority 2021, published 2025).

Holding throughout (assay type): physicochemical
The nature of data set [1]: Thermodynamic analysis experiment (heating, XRPD). The method, then:
Crystalline form H and crystalline form S were heated to appropriate temperatures under N2 protection, and after cooling to room temperature, the XRPD of the solids was measured.

A short description of data set [2]: Influencing factors test (light, high temperature, high humidity). Particulars: 5000Lx light, 60° C., 90% RH±5% RH; 0, 5, 10, 30 days. The method, then:
The stability of the crystalline form of the present invention under accelerated test conditions was determined. […] Stability testing was conducted under the following conditions, and samples were taken on the 0th day, the 5th day, the 10th day and the 30th day. The content, total impurities, and XRPD patterns of the samples were recorded and compared with the initial data.

Data set [3] is described as follows: Crystal form stability test. As to the method:
The crystalline form M was stored at a temperature of 25° C. and a humidity of 55% RH for 35 days, and the XRPD of the solid was tested.

A short description of data set [4]: Dynamic solubility in biological solvents at 37° C. Particulars: 37° C. As to the method:
(1) Preparation method of FaSSIF: a. Weigh 42 mg NaOH, 395 mg NaH2PO4·H2O and 619 mg NaCl in a 100 mL beaker, add 90 mL deionized water to dissolve: b. Adjust the pH to […]; Dilute to 100 mL with deionized water to obtain FaSSIF blank solvent: c. Weigh 224 mg of Simulated Intestinal Fluid (hereinafter referred to as SIF powder), add 50 mL of the above FaSSIF blank solvent, and stir until completely dissolved; use Dilute the FaSSIF blank solvent to 100 mL to prepare the solvent FaSSIF; d. Let it stand at room temperature for 2 hours before use.
(2) Preparation method of FeSSIF: a. Weigh 404 mg NaOH, 865 mg glacial acetic acid and 1189 mg NaCl in a 100 mL beaker, add 90 mL deionized water to dissolve: b. Adjust the pH to 5.0 with 1N NaOH or 1N HCl; Dilute to 100 mL with deionized water to obtain FeSSIF blank solvent; c. Weigh 1120 mg SIF powder and add 50 mL of the above FeSSIF blank solvent, stir until dissolved: dilute to 100 mL with FeSSIF blank solvent to obtain FeSSIF solvent d. Let it stand at room temperature before use to ensure a clear solution.
(3) Preparation method of SGF: a. Weigh 200 mg NaCl in a 100 mL beaker, add 90 mL deionized water to dissolve; b. Adjust the pH to 1.6 with 1N HCl; dilute to 100 mL with deionized water to obtain SGF Blank solvent; c. Weigh 6 mg SIF powder and add 50 mL of the above SGF blank solvent, stir until dissolved: dilute to 100 mL with SGF blank solvent to prepare the solvent SGF: d. Let it stand at room temperature before use to ensure a clear solution.
(100 rpm). Take 1.3 mL of the suspension (or clarified solution) respectively at 1, 4, and 24 hours, and centrifuge the suspension for 5 minutes. The solid obtained is used for crystal form detection (XRPD), and the supernatant/clarified solution is filtered for solubility testing and pH test.
Solubility data of the samples were collected using a high-performance liquid chromatograph equipped with an image diode array detector.

The nature of data set [5]: Solid state stability (HPLC purity, XRPD). As to conditions: for Purity (%): open. As to the method: Purity testing (via HPLC) and crystal form detection (via XRPD) were performed on starting samples, samples stored for one week, and samples stored for two weeks.

Each structure is given as a SMILES string.

In the case of `C[C@@H](O)c1nc2cnc3[nH]ccc3c2n1N1CCC(CC#N)CC1` [Crystalline form H, (R)-2-(1-(2-(1-hydroxyethyl)imidazo[4,5-d]pyrrolo[2,3-b]pyridine-1(6H)-yl)piperidin-4-yl)acetonitrile], the “crystal form after heating (XRPD)” value in data set [1] (heated to 162° C. under N2, cooled to room temperature) is reported as “partially converted into crystalline form A”; in data set [1] (heated to 210° C. under N2, cooled to room temperature) it was “completely converted into crystalline form A”. In addition, the “stability under accelerated test conditions (content, total impurities, XRPD)” value in data set [2] is on record as “better stability”.

With `C[C@@H](O)c1nc2cnc3[nH]ccc3c2n1N1CCC(CC#N)CC1` [Crystalline form M, (R)-2-(1-(2-(1-hydroxyethyl)imidazo[4,5-d]pyrrolo[2,3-b]pyridine-1(6H)-yl)piperidin-4-yl)acetonitrile], the “stability under ambient temperature and humidity” value in data set [3] is recorded as “unstable”. Moreover, the “crystal form after storage (XRPD)” value in data set [3] (25° C., 55% RH, 35 days) was “transformed into the crystalline form A”.

In the case of `C[C@@H](O)c1nc2cnc3[nH]ccc3c2n1N1CCC(CC#N)CC1` [Crystalline form Q, (R)-2-(1-(2-(1-hydroxyethyl)imidazo[4,5-d]pyrrolo[2,3-b]pyridine-1(6H)-yl)piperidin-4-yl)acetonitrile], the “Changes in Crystal form” value is listed as “no change” in data set [4] (FaSSIF, 1 h); “no change” in data set [4] (FaSSIF, 24 h); “no change” in data set [4] (FeSSIF, 24 h); “no change” in data set [4] (SGF, 1 h); “no change” in data set [4] (SGF, 24 h). For the same molecule, the pH in data set [4] (FaSSIF, 1 h) was 6.45; in data set [4] (FaSSIF, 4 h), 6.40; in data set [4] (FaSSIF, 24 h), 6.49; in data set [4] (FeSSIF, 1 h), 4.96; in data set [4] (FeSSIF, 4 h), 4.98; in data set [4] (FeSSIF, 24 h) it was 5.00. Further, the pH in data set [4] (SGF, 1 h) is 2.60; in data set [4] (SGF, 4 h), 2.98; in data set [4] (SGF, 24 h), 2.71. Besides, the “crystal form stability when suspended and stirred” value in data set [4] (SGF/FeSSIF/FeSSIF, 24 hours) is “stable”. Also, in data set [5], the “solid-state stability (conclusion)” value is “good solid-state stability”. The “Purity (%)” value was 99.80% in data set [5] (1 week, 25° C./60% RH); 99.93% in data set [5] (1 week, 40° C./75% RH); 99.91% in data set [5] (1 week, 60° C.); 99.87% in data set [5] (2 week, 25° C./60% RH); 99.87% in data set [5] (2 week, 40° C./75% RH); 99.92% in data set [5] (2 week, 60° C.). Moreover, the Crystal form changes result in data set [5] (1 week, 25° C./60% RH, 40° C./75% RH, 60° C.) is listed as “no change”; in data set [5] (2 week, 25° C./60% RH, 40° C./75% RH, 60° C.), “no change”. Also, the “change in the crystalline form (XRPD)” value in data set [5] (after one week and two weeks of storage under the selected conditions) is “no change”. Moreover, in data set [5] (after one week and two weeks under the selected conditions), the change in purity result is on record as “no significant change”. Moreover, the “Starting sample Purity (%)” value in data set [5] (starting sample) was 99.87%. Also, the “stability under accelerated test conditions (content, total impurities, XRPD)” value in data set [2] is “better stability”.

Take `C[C@@H](O)c1nc2cnc3[nH]ccc3c2n1N1CCC(CC#N)CC1` [Crystalline form S, (R)-2-(1-(2-(1-hydroxyethyl)imidazo[4,5-d]pyrrolo[2,3-b]pyridine-1(6H)-yl)piperidin-4-yl)acetonitrile]: the “crystal form after heating (XRPD)” value in data set [1] (heated to 215° C. under N2, cooled to room temperature) is “converted into crystalline form A”.
